Here are results for 1 sequence from US8563516B2, “Foxp3 peptide vaccine” (OncoTherapy Science, Inc., priority 2007, dated 2013).

Common to all, as to format: cell-based, human
For test [1], the system named is peptide-pulsed T2 cells. Kind of test: IFN-gamma ELISPOT on CTLs induced with HLA-A0201 restricted Foxp3 peptides. Conditions: FIG. 2A/2B/2C. An excerpt:
(§1) Monocyte-derived dendritic cells (DCs) were used as antigen-presenting cells (APCs) to induce CTL responses against peptides presented on HLA. DCs were generated in vitro as described elsewhere (Horiguchi S. et al. Cancer Res. 59:2950-6). Specifically, peripheral blood mononuclear cells (PBMCs) isolated from normal volunteer (HLA-A*2402 and/or HLA-A*0201) with Ficoll-Plaque (Pharmacia) solution were separated by adherence to plastic tissue culture dish (Becton Dickinson) so as to enrich them for the monocyte fraction. The monocyte-enriched population was cultured in the presence of 1000 U/ml of GM-CSF (R&D System) and 1000 U/ml of IL-4 (R&D System) in AIM-V medium (Invitrogen) containing 2% heat-inactivated autologous serum (AS). After 7 days in the culture, the cytokine-generated DCs were pulsed with 20 mcg/ml of the synthesized peptides in the presence of 3 mcg/ml of beta2-microglobulin for 4 hrs at 20 degrees C. in AIM-V medium. These peptide-pulsed DCs were then inactivated with mitomycin C (MMC) (30 mcg/ml for 30 mins) and mixed at a 1:20 ratio with autologous CD8+ T cells, obtained by positive selection with CD8 Positive Isolation Kit (Dynal). These cultures were set up in 48-well plates (Corning); each well contained 1.5×10^4 peptide-pulsed DCs, 3×10^5 CD8+ T cells and 10 ng/ml of IL-7 (R&D System) in 0.5 ml of AIM-V/2% AS. Three days later, these cultures were supplemented with IL-2 (CHIRON) to a final concentration of 20 IU/ml. On day 7 and 14, the T cells were further restimulated with the peptide-pulsed autologous DCs. The DCs were prepared each time through the same procedure described above. CTL activity was tested against peptide-pulsed A24LCL cells or T2 cells after the 3rd round of peptide stimulation on day 21.
(§2) To examine the specific CTL activity, IFN-gamma ELISPOT assay and IFN-gamma ELISA were performed. Briefly, peptide-pulsed A24-LCL, T2 cell (1×10^4/well) or the cells endogenously expressing Foxp3 and HLA molecule was prepared as a stimulator cells. Cultured CTL lines in 48 wells were used as a responder cells. IFN-gamma ELISPOT assay and IFN-gamma ELISA were performed under manufacture procedure.
Resulting CTLs showing detectable specific CTL activity were shown in FIG. 2A, FIG. 2B and FIG. 2C when performed by IFN-gamma ELISPOT assay.

Test [2] concerns peptide-pulsed A24LCL cells or T2 cells. Kind of test: In vitro CTL induction by peptide-loaded dendritic cells (summary statements).
Text: Confirmation of CTL inducibility can be accomplished by inducing antigen-presenting cells carrying human MHC antigens (for example, B-lymphocytes, macrophages, and dendritic cells), or more specifically dendritic cells derived from human peripheral blood mononuclear leukocytes, and after stimulation with the peptides, mixing with CD8-positive cells, and then measuring the IFN-gamma produced and released by CTL against the target cells. As the reaction system, transgenic animals that have been produced to express a human HLA antigen (for example, those described in BenMohamed L, Krishnan R, Longmate J, Auge C, Low L, Primus J, Diamond D J, Hum Immunol 61(8): 764-79, 2000 August, Related Articles, Books, Linkout Induction of CTL response by a minimal epitope vaccine in HLA A*0201/DR1 transgenic mice: dependence on HLA class II restricted T(H) response) can be used. For example, the target cells can be radiolabeled with ^51Cr and such, and cytotoxic activity can be calculated from radioactivity released from the target cells. Alternatively, it can be examined by measuring IFN-gamma produced and released by CTL in the presence of antigen-presenting cells that carry immobilized peptides, and visualizing the inhibition zone on the media using anti-IFN-gamma monoclonal antibodies.
as §1, §2

The subject of test [3] is peptide pulsed T2 cells. In words: IFN-gamma ELISPOT: CTL line induced with Foxp3-9-252-WT against T2 cells pulsed with substituted peptide. Conditions: FIG. 7A. The method, then: IFN-gamma ELISPOT assay was performed using CTL line induced with Foxp3-9-252-WT peptide as responder cells and T2 cells pulsed Foxp3-9-252-WT or Foxp3-9-252-9V peptide as stimulator cells, respectively. T2 cells without peptide pulse were prepared as control. […] IFN-gamma ELISA assay was performed using CTL line induced with Foxp3-9-252-WT peptide as responder cells (1×10^5 cells/well) and Foxp3-9-252-WT (-solid circle-), Foxp3-9-252-9V (-open circle-) or HIV-A02 (-solid triangle-) peptide pulsed T2 cells as stimulator cells (1×10^4 cells/well). Peptide pulse of stimulator cells was conducted at 37 degree Celsius for 2 hours in each kind of peptide and peptide concentration.
as §2
And then the present inventers examined whether peptide-pulsed stimulator cells using these substitutions were recognized by CTLs generated with Foxp3-9-252-WT peptide.

For “KLSAMQAHL (peptide vaccine) [SEQ ID NO 17]”, the “IFN-gamma production of CTLs stimulated with peptide, compared with the control” value in test [1] is “potent IFN-gamma production”. Moreover, the “specific CTL activity” value in test [2] (against peptide pulsed target cells) is “significant and specific CTL activity”. The “establishment of CTLs” value in test [2] (in vitro stimulation of T-cells by DCs loaded with peptide) was “CTLs were successfully established”. The “IFN-gamma production of Foxp3-9-252-WT induced CTLs against peptide pulsed T2 cells” value in test [3] is on record as “produced IFN-gamma”.
